Each structure is given as a SMILES string.

1 molecule from patent US10624876B2, “Derivatives of indole for the treatment of endometriosis” (BIOKINESIS, priority 2016, dated 2020) can be followed below.

This assay concerns endometriosis lesions. The assay can be described thus: Ex vivo clinical evaluation of endometriosis lesions (intraperitoneal uterine horn implants) in syngenic mice. As to conditions: estradiol at D-1, implants at D0, nanosuspension (50 mg/mL) i.v. 100 mg/kg/BW every 2 days from D7 to D21, sacrificed at D23, versus control group (Vehicle). As for the experimental part:
FIG. 2: Ex vivo clinical evaluation (implant volume (mm^3) and weight (g)) in syngenic mice.
Example 1: Echographic and Ex Vivo Evaluation of Endometriosis Lesions in Syngenic Mice Treated with Compound 38
More particularly, 20 syngenic mices were engraved estradiol at D-1. Intraperitoneal Uterine Horsn implant have been implanted in each mouse at DO. A nanosuspension of compound 38 (50 mg/mL) has been intravenously administered in 10 mice (treated group) at a 100 mg/kg/BW dose from D7 to D21 every 2 days.
Mices have been sacrified at D23 and implants have been removed for ex vivo clinical evaluation.

`COc1ccc(C#N)cc1/C=C(\C#N)c1c[nH]c2ccc(Br)cc12` [Compound 38, (Z)-3-(2-(5-bromo-1H-indol-3-yl)-2-cyanovinyl)-4-methoxybenzonitrile]: the implant volume result was “lower than those of the control group” and the implant weight entry is reported as “lower than those of the control group”.
